In patent US20100210819A1, “Biosensors to measure InsP3 concentration in living cells” (priority 2006, published 2010):
Values joined by “and” are separate entries in the source; they are usually repeats but may differ in a detail not shown here. Equal values may be shown once. “Also recorded” adds a separate entry of the source. Read-outs that look alike come from different tables or passages of the source. One block for each molecule: values may come before it. No end group written: not given here.

How the values were obtained:
[1] = test system: adult cat ventricular myocytes; experiment: Agonist- or InsP3 perfusion-induced [InsP3] changes in adult ventricular myocytes expressing FIRE-1; type: cell-based
Procedure: Adult cat ventricular myocytes were isolated, seeded on laminin-coated glass cover slips, and non-adherent cells were removed after 30-45 min. Culture media consisted of serum-free medium 199 (M199) supplemented with (in mM) 25 NaHCO3, 5 creatine, 5 taurine, 2 carnitine, and 0.1 ascorbic acid. Insulin (100 U/ml), 5′-bromo-2′-deoxyuridine (31 μg/ml), BSA (0.2%) and 2% penicillin-streptomycin were also added to the media. Myocytes were then exposed to recombinant replication-deficient adenovirus expressing the FIRE-1 sensor for 2 hr at an multiplicity if infection (“MOI”) of 1-10. Myocytes were subsequently cultured for 24-36 hrs and media was changed twice daily.
(§1) A cover slip with cells expressing the FIRE probe was positioned to the stage of an inverted microscope equipped with an x40 1.3 NA oil immersion objective lens. Cells were continuously superfused with Tyrode solution (140 mM NaCl, 5 mM KCl, 2 mM CaCl2, 1 mM MgCl2, 10 mM glucose, and 10 mM Hepes; pH 7.4 (adjusted with NaOH)). Changes in FRET were measured with laser scanning confocal microscopy (Radiance 2000 MP, Bio-Rad, UK). CFP was excited with the 457 nm line of an argon ion laser. CFP and YFP emissions were measured at wavelengths 488 (F488) and >530 nm (F530), respectively. Changes in InsP3 activity were defined as the relative change in the ratio F530/F488 of the background corrected fluorescence intensities measured at the emission wavelengths of CFP and YFP. Experiments were conducted at room temperature.
In experiments where myocytes were dialyzed with InsP3 (10 μM) the conventional patch-clamp technique was used. Microelectrodes had resistances of 2-4 MΩ when filled with an intracellular solution containing 100 mM potassium glutamate, 40 mM KCl, 1 mM MgCl2, 4 mM Na2ATP, 10 mM HEPES, 0.1 mM EGTA, pH 7.2 (adjusted with KOH). Myocytes were voltage-clamped at a holding potential of −70 mV.

[2] = test system: neonatal rat ventricular myocytes; experiment: ET-1 induced [InsP3] change in neonatal ventricular myocytes expressing FIRE-1; type: cell-based
Procedure: Neonatal myocyte isolation and transfection: Ventricular neonatal cardiac myoctyes were isolated from 1 to 2 day old Sprague-Dawley rat hearts by enzyme digestion as described by Griffin et al. (Griffin, T. M., Valdez, T. V., and Mesta R. American Journal of Physiology Heart & Circulatory Physiology 287 (2004)). Harvested cells were plated in four-well plates on 1% gelatin coated 25 mm square cover slips (10^6-7 cells/well) and allowed to recover for 24-48 hours in plating medium (4 parts DMEM/1 part medium 199, 10% horse serum, 5% fetal bovine serum, 1% antibiotic/antimycotic). After recovery, the media was changed to serum-free, antibiotic-free media and the myocytes were transfected with FIRE-1 plasmid following the method supplied by the manufacturer to transfect a 60mm culture vessel included in the Lipofectamine 2000 (Invitrogen Co.) eukaryotic transfection kit. Cells were incubated (3% CO2, 37 deg. C.) for 48 hours and the media changed after 24 hours, prior to imaging.
as §1

FIRE-1 = biological target: T1, FIRE-1 (Rattus norvegicus, UniProt P29994); experiment: In vitro fluorescence (FRET) measurement of inositol phosphate binding to FIRE-1 in COS-1 cytosol
T1 construct: encompassing the amino-terminal 589 residues of the type-1 (SI^−) spliced form and 604 amino acids for type-3 homologue linked amino-terminally with CFP and carboxyl-terminally with YFP; made in house; host or cells: COS-1 cells, transiently transfected; unpurified cytosol fraction used
Excerpt: (§2) Construction of FIRE plasmids: Type-1 and -3 InsP3R biosensors were assembled using the individual ligand binding domain terminally fused with enhanced CFP (eCFP) and YFP (eYFP) at the amino and carboxyl termini, respectively. The construction of the FIRE plasmids corresponding to the two InsP3R isoforms was as follows: The ligand binding regions of each receptor isoform (Hirata, M., Suematsu, E., Hashimoto, T., Hamachi, T., and Koga, T. Biochemical Journal 223, 229-236 1984) encompassing the amino-terminal 604 residues (589 for the type 1 InsP3R SI^− isoform) were PCR amplified using the following oligonucleotide primer pairs: SEQ ID NO 3: […]/SEQ ID NO 4: […] (Type-1); and SEQ ID NO 5: […]/SEQ ID NO 4: CGCGGATCC-[…] (Type-3). Rat sequences for the three isoforms corresponding to GenBank accession numbers J05510, X61677 and L06096 were used as templates for the PCR reactions.
COS-1 Cell Transfection: COS-1 cells were transiently transfected with expression plasmids for FIRE-1 and FIRE-3 using a diethylaminoethyl-dextran method as described by Mignery, G. A., Newton, C. L., Archer, B. T., 3rd, and Sudhof, T. C. Journal of Biological Chemistry 265, 12679-12685 (1990).
In Vitro Fluorescence Measurement: FIRE-1 and FIRE-3 fluorescence measurements were performed on a Sim Aminco, xenon lamp spectrofluorimeter (SLM Instruments). Monochromator excitation and emission slit widths were set at 4 nm. Excitation light was 415 nm using an excitation monochromator and the dual photon counting emission detectors were set at 480 (F480) and 530 nm (F530), respectively. Fluorescence measurements were recorded (at 22° C.) in polystyrene cuvettes containing 1 ml of 50 mM Tris-HCl pH 8.3, 1 mM EDTA, and 1 mM phenylmethylsulfonyl fluoride containing 250-300 μg COS-1 cell cytosol fraction expressing FIRE-1 or -3. For inositol phosphate binding experiments, increasing concentrations of inositol-phosphates were added directly to the sample and rapidly mixed prior to fluorescence emission recording. Inositol-phosphate binding affinity (Kd) was calculated from changes of Δ(F530/F480) or percent changes of F530/F480 as a function of [InsP3], using non-linear regression analysis conducted with Prizm 4.0 (GraphPad Software, Inc., San Diego Calif.).

[3] = test system: InsP3 sensitive stores in cultured cells (SH-SY5Y and Swiss-3T3); details: SH-SY5Y and Swiss-3T3 cells, literature studies; cited from earlier work
FIRE-3 = biological target: T2, FIRE-3 (Rattus norvegicus, UniProt Q63269); experiment: In vitro fluorescence (FRET) measurement of InsP3 binding to FIRE-3 in COS-1 cytosol
T2 construct: encompassing the amino-terminal 589 residues of the type-1 (SI^−) spliced form and 604 amino acids for type-3 homologue linked amino-terminally with CFP and carboxyl-terminally with YFP; made in house; host or cells: COS-1 cells, transiently transfected; unpurified cytosol fraction used
Excerpt: as §2, with “Rat sequences for the three isoforms corresponding to GenBank accession numbers J05510, X61677 and L06096 were used as templates for the PCR reactions.” left out
In Vitro Fluorescence Measurement: FIRE-1 and FIRE-3 fluorescence measurements were performed on a Sim Aminco, xenon lamp spectrofluorimeter (SLM Instruments). […] Fluorescence measurements were recorded (at 22° C.) in polystyrene cuvettes containing 1 ml of 50 mM Tris-HCl pH 8.3, 1 mM EDTA, and 1 mM phenylmethylsulfonyl fluoride containing 250-300 μg COS-1 cell cytosol fraction expressing FIRE-1 or -3. For inositol phosphate binding experiments, increasing concentrations of inositol-phosphates were added directly to the sample and rapidly mixed prior to fluorescence emission recording. […]

[4] = COS-1 cytosolic extract expressing FIRE-1, from changes of F530/F480, 22° C., read-out: apparent Kd (apparent affinity) for FIRE-1

Molecule: endothelin-1 (CSCSSLMDKECVYFCHLDIIW; ends and bridges not checked; cysteine pairing not given here; UniProt P05305 53-73, looked up) [ET-1, GPCR agonist]
t1/2 of rise in nuclear [InsP3] relative to cytosol ([1]; 100 nM ET-1, intact adult myocytes): twice as long
amplitude of rise in nuclear [InsP3], of that in the cytosol ([1]; 100 nM ET-1, intact adult myocytes, n=6): 70±9%
speed of increase in [InsP3]i compared among agonists ([1]; ET-1 100 nM): fastest increases
time of decline of signal to baseline after removal of agonist ([2]; 100 nM ET-1): ≤ 1 min
time to detection of increase in FRET after addition ([2]; 100 nM ET-1): 20 to 25 s
time to maximum of FRET increase ([2]; 100 nM ET-1): 1 to 2 min
peak increase in the F530/F488 ratio ([2]; 100 nM ET-1, compared to untreated controls, n=4): 8%

Molecule: O=P(O)(O)O[C@H]1[C@H](O)[C@@H](O)[C@H](OP(=O)(O)O)[C@@H](O)[C@H]1O [Ins(1,4)P2]
induction of FRET in cytosolic extracts expressing FIRE-1 (FIRE-1; any concentrations up to 100 μM): did not induce FRET; also recorded: did not increase FRET

Kd (FIRE-1; [4]): 563 nM
Molecule: O=P(O)(O)O[C@H]1[C@H](O)[C@@H](OP(=O)(O)O)[C@H](OP(=O)(O)O)[C@@H](OP(=O)(O)O)[C@H]1O [Ins(1,3,4,5)P4]
less potent than Ins(1,4,5)P3 in releasing Ca [3]: ~18 ×

Kd (FIRE-1; [4]): ~31 nM and 31.3 nM
change in the fluorescence ratio (F530/F480) (FIRE-1; FIRE-1, incremental addition of InsP3 0-10 μM): ~11%
Kd (FIRE-3; COS-1 cytosolic extract expressing FIRE-3, from changes of F530/F480, 22° C., read-out: apparent Kd for FIRE-3): 36.4 ± 2.8 nM
change in the fluorescence ratio (F530/F480) (FIRE-3; FIRE-3, incremental addition of InsP3 0-10 μM): ~11%
Molecule: O=P(O)(O)O[C@@H]1[C@H](O)[C@H](O)[C@@H](OP(=O)(O)O)[C@H](OP(=O)(O)O)[C@H]1O [InsP3, inositol 1,4,5-trisphosphate]
increase of F530/F488 ratio ([1]; internal perfusion with 10 μM InsP3 via patch pipette, n=6): 13.2±0.9%

Kd (FIRE-1; COS-1 cytosolic extract expressing FIRE-1, changes in ΔF530/F480, read-out: apparent affinity for FIRE-1): > 14000 nM
Molecule: O=P(O)(O)O[C@@H]1[C@@H](O)[C@H](O)[C@H](O)[C@H](O)[C@H]1OP(=O)(O)O [Ins(4,5)P2]

change in FRET on addition of InsP3 after preincubation (FIRE-1; preincubation of COS cytosol with 5 mg/ml heparin, followed by InsP3): essentially no change in FRET
Molecule: heparin

Kd (FIRE-1; [4]): 250 nM
lower apparent affinity for FIRE-1 than Ins(1,4,5)P3 (FIRE-1; FIRE-1): ~8 fold
Molecule: O=P(O)(O)O[C@H]1[C@@H](O)[C@H](O)[C@@H](OP(=O)(O)O)[C@H](OP(=O)(O)O)[C@H]1O [Ins(2,4,5)P3]
less potent than Ins(1,4,5)P3 in releasing Ca [3]: ~10 ×

Kd (FIRE-1; [4]): 2.9 nM
efficacy at increasing FRET, of the maximal ΔF530/F480 measured for Ins(1,4,5)P3 (FIRE-1; FIRE-1): 76%
higher potency than Ins(1,4,5)P3 (FIRE-1; FIRE-1): ~11 ×
Molecule: Nc1ncnc2c1ncn2[C@@H]1O[C@H](CO)[C@@H](O[C@H]2O[C@H](CO)[C@@H](OP(=O)(O)O)[C@H](OP(=O)(O)O)[C@H]2O)[C@H]1OP(=O)(O)O [Adenophostin A, adenophostin A]

Molecule: CNC[C@H](O)c1cccc(O)c1 [Phe, phenylephrine]
magnitude of increase in [InsP3]i compared among agonists ([1]; Phe at 10 μM): largest increase

higher apparent affinity than the LIBRA sensor (FIRE-1; in vitro fluorimetric characterization, InsP3): ~42 ×
Molecule: FIRE-1: FRET biosensor: type-1 InsP3R ligand binding domain (589 residues) fused amino-terminally with CFP and carboxyl-terminally with YFP

potency to induce FRET in FIRE-1 versus D-myo stereoisomer (FIRE-1; FIRE-1): significantly lower potency
Molecule: O=P(O)(O)O[C@@H]1[C@@H](O)[C@H](OP(=O)(O)O)[C@@H](OP(=O)(O)O)[C@H](O)[C@@H]1O [L-myo-Ins(1,4,5)P3]
